This is an account of results in US8546401B2, “5,6-disubstituted oxindole-derivatives and use thereof for treating vasopressin-dependent diseases” (AbbVie Deutschland GmbH & Co. KG, priority 2007, dated 2013).

Assay [1] concerns the target T1, human vasopressin V1a receptor (Homo sapiens, UniProt P37288).
T1 construct: expressed in transfected cells; host or cells: CHO-K1 (cell line hV1a_5_CHO), membrane preparation
Nature of the assay: Vasopressin V1a receptor binding assay. Conditions: selectivity quotient, human receptors. The protocol:
2. Vasopressin V1a Receptor Binding Assay:
The test substances were dissolved in a concentration of 10^−2 M in DMSO. Further dilution of these DMSO solutions took place in incubation buffer (50 mM Tris, 10 mM MgCl2, 0.1% BSA, pH 7.4).
CHO-K1 cells with stably expressed human vasopressin V1a receptor (clone 5) were harvested and homogenized in 50 mM Tris-HCl and in the presence of protease inhibitors (Roche complete Mini #1836170) using a Polytron homogenizer at intermediate setting for 2×10 seconds, and subsequently centrifuged at 40 000×g for 1 h. The membrane pellet was again homogenized and centrifuged as described and subsequently taken up in 50 mM Tris-HCl, pH 7.4, homogenized and stored in aliquots frozen in liquid nitrogen at −190° C.
(§1) The binding assay was carried out by the method based on that of Tahara et al. (Tahara A et al., Brit. J. Pharmacol. 125, 1463-1470 (1998)).
(§2) The incubation buffer was: 50 mM Tris, 10 mM MgCl2, 0.1% BSA, pH 7.4.
In the assay mixture (250 μl), membranes (20 μg/ml protein in incubation buffer) from CHO-K1 cells with stably expressed human V1a receptors (cell line hV1a—5_CHO) were incubated with 0.04 nM ^125I-AVP (8-Arg-vasopressin, NEX 128) in incubation buffer (50 mM Tris, 10 mM MgCl2, 0.1% BSA, pH 7.4) (total binding) or additionally with increasing concentrations of test substance (displacement experiment). The nonspecific binding was determined with 1 μM AVP (Bachem #H1780). Triplicate determinations were carried out.
After incubation (60 minutes at room temperature), the free radioligand was filtered off by vacuum filtration (Skatron cell harvester 7000) through Wathman GF/B glass fiber filter mats, and the filters were transferred into scintillation vials.
The liquid scintillation measurement took place in a model 2000 or 2200CA Tricarb instrument (Packard). Conversion of the measured cpm into dpm was carried out with the aid of a standard quench series.
The binding parameters were calculated by nonlinear regression in SAS. The algorithms of the program operate in analogy to the LIGAND analysis program (Munson P J and Rodbard D, Analytical Biochem. 107, 220-239 (1980)). The Kd of ^125I-AVP for the recombinant hV1a receptors was determined in saturation experiments. A Kd of 1.33 nM was used to determine the Ki.

Assay [2] concerns the target T2, human oxytocin receptors (Homo sapiens, UniProt P30559).
T2 construct: expressed in transfected cells; host or cells: HEK-293, transient expression; lysed and homogenized cells
T2 sequence (P30559 1-389): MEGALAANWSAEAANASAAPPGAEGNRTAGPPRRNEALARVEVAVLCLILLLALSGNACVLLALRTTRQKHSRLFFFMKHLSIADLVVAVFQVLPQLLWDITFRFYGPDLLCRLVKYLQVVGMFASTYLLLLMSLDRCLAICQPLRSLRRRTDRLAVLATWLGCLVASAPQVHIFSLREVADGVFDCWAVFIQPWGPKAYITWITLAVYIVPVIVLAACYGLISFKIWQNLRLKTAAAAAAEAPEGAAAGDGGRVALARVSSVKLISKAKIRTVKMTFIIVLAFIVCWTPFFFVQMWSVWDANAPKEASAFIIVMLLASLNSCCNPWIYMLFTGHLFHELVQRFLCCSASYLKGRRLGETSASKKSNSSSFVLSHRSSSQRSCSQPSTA
Nature of the assay: Oxytocin receptor binding assay. The note with it: selectivity quotient. The protocol:
4. Oxytocin Receptor Binding Assay
The substances were dissolved in a concentration of 10^−2 M in DMSO and diluted with incubation buffer (50 mM Tris, 10 mM MgCl2, 0.1% BSA, pH 7.4).
Confluent HEK-293 cells with transiently expressing recombinant human oxytocin receptors were centrifuged at 750×g at room temperature for 5 minutes. The residue was taken up in ice-cold lysis buffer (50 mM Tris-HCl, 10% glycerol, pH 7.4 and Roche complete protease inhibitor) and subjected to an osmotic shock at 4° C. for 20 minutes. The lyzed cells were then centrifuged at 750×g at 4° C. for 20 minutes, the residue was taken up in incubation buffer, and aliquots of 10^7 cells/ml were prepared. The aliquots were frozen at −80° C. until used.
On the day of the experiment, the cells were thawed, diluted with incubation buffer and homogenized using a Multipette Combitip (Eppendorf, Hamburg). The reaction mixture of 0.250 ml was composed of 2 to 5×10^4 recombinant cells, 3-4 nM ^3H-oxytocin (PerkinElmer, NET 858) in the presence of test substance (inhibition plot) or only incubation buffer (total binding). The nonspecific binding was determined with 10^−6 M oxytocin (Bachem AG, H2510). Triplicate determinations were set up. Bound and free radioligand were separated by filtration under vacuum with Whatman GF/B glass fiber filters with the aid of a Skatron cell harvester 7000. The bound radioactivity was determined by liquid scintillation measurement in a Tricarb Beta counter, model 2000 or 2200CA (Packard).
The binding parameters were calculated by nonlinear regression analysis (SAS) in analogy to the LIGAND program of Munson and Rodbard (Analytical Biochem 1980; 107: 220-239). The Kd of ^3H-oxytocin for the recombinant hOT receptors is 7.6 nM and was used to determine the Ki.

Assay [3] concerns the target T3, human vasopressin V1b receptor (Homo sapiens, UniProt P47901).
T3 construct: expressed in transfected cells; host or cells: CHO-K1 (cell line hV1b_3H2_CHO), membrane preparation
T3 sequence (P47901 1-424): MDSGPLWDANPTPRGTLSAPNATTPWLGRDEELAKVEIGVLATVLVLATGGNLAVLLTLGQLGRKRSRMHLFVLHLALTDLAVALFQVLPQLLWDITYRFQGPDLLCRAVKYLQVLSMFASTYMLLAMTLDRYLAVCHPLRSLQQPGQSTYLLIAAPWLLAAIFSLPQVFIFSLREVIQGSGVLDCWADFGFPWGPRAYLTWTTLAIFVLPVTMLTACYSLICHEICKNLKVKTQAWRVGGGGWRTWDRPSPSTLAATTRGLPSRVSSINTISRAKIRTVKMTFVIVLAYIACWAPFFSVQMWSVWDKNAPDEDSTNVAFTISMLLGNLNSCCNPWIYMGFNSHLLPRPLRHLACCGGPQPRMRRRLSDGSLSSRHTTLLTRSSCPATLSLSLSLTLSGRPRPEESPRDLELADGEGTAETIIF
The experiment in a line: Vasopressin V1b receptor binding assay. Conditions: CHO-K1 membranes, 3H-AVP displacement. Here is the method:
1. Vasopressin V1b Receptor Binding Assay:
The test substances were dissolved in a concentration of 10^−2 M in DMSO and further diluted to 5×10^−4 M to 5×10^−3 M. These serial DMSO predilutions were diluted 1:10 with assay buffer. The substance concentration was further diluted 1:5 in the assay mixture (2% DMSO in the mixture).
CHO-K1 cells with stably expressed human vasopressin V1b receptor (clone 3H2) were harvested and homogenized in 50 mM Tris-HCl and in the presence of protease inhibitors (Roche complete Mini #1836170) using a Polytron homogenizer at intermediate setting for 2×10 seconds, and subsequently centrifuged at 40 000×g for 1 h. The membrane pellet was again homogenized and centrifuged as described and subsequently taken up in 50 mM Tris-HCl, pH 7.4, homogenized and stored in aliquots frozen in liquid nitrogen at −190° C.
as §1, §2
In the assay mixture (250 μl), membranes (50 μg/ml protein in incubation buffer) from CHO-K1 cells with stably expressed human V1b receptors (cell line hV1b—3H2_CHO) were incubated with 1.5 nM ^3H-AVP (8-Arg-vasopressin, PerkinElmer #18479) in incubation buffer (50 mM Tris, 10 mM MgCl2, 0.1% BSA, pH 7.4) (total binding) or additionally with increasing concentrations of test substance (displacement experiment). The nonspecific binding was determined with […] (Bachem #H1780). All determinations were carried out as triplicate determinations. After incubation (60 minutes at room temperature), the free radioligand was filtered off by vacuum filtration (Skatron cell harvester 7000) through Wathman GF/B glass fiber filter mats, and the filters were transferred into scintillation vials. The liquid scintillation measurement took place in a model 2000 or 2200CA Tricarb instrument (Packard). Conversion of the measured cpm into dpm was carried out with the aid of a standard quench series.
The binding parameters were calculated by nonlinear regression in SAS. The algorithms of the program operate in analogy to the LIGAND analysis program (Munson P J and Rodbard D, Analytical Biochem. 107, 220-239 (1980)). The Kd of ^3H-AVP for the recombinant human V1b receptors is 0.4 nM and was used to determine the Ki.

Bounds are passed on as bounds.

T1 sequence (P37288 whole entry): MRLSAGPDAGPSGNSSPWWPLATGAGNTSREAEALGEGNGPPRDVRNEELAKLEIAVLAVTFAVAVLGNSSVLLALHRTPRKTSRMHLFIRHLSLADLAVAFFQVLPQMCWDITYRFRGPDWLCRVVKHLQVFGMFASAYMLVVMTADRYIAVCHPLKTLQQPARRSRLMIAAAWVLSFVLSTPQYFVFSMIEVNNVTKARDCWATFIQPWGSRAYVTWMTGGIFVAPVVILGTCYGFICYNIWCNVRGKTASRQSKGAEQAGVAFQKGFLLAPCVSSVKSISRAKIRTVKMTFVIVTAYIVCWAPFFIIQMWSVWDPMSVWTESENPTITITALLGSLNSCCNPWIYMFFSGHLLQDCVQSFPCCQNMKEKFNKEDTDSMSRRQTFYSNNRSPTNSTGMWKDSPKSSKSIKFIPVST

One may read the Ki as the dissociation constant of the complex between target and ligand, obtained from inhibition or displacement. Turning to `CCOc1ncccc1C1(NC(=O)N2CCN(C3CCN(C)CC3)CC2)C(=O)N(S(=O)(=O)c2ccc(OC)cc2OC)c2cc(F)c(Cl)cc21` (stereo not drawn) [Example 19, 4-(1-Methylpiperidin-4-yl)piperazine-1-[5-chloro-1-(2,4-dimethoxyphenylsulfonyl)-3-(2-ethoxypyridin-3-yl)-6-fluoro-2-oxo-2,3-dihydro-1H-indol-3-yl]carboxamide], the “Ki(h − V1a)/Ki(h − V1b)*” value in assay [1] is reported as “++ (25-75)”. For the same compound, the “Ki(h − OT)/Ki(h − V1b)*” value in assay [2] is on record as “++ (25-75)”. Also, in assay [3], the inhibition constant Ki is under 1 nM.
As to `CCOc1ccccc1C1(NC(=O)N2CCC(N3CCN(C)CC3)CC2)C(=O)N(S(=O)(=O)c2ccc(OC)cc2OC)c2cc(F)c(C#N)cc21` (stereo not drawn) [Example 14, 4-(4-Methylpiperazin-1-yl)piperidine-1-[5-cyano-1-(2,4-dimethoxyphenylsulfonyl)-3-(2-ethoxyphenyl)-6-fluoro-2-oxo-2,3-dihydro-1H-indol-3-yl]carboxamide], the “Ki(h − V1a)/Ki(h − V1b)*” value in assay [1] is “+ (10-<25)”. For the same compound, the “Ki(h − OT)/Ki(h − V1b)*” value in assay [2] is reported as “+++ (>75)”. The compound also returned a Ki in assay [3] of 1 to 10 nM.
Taken in the same sequence, the figures for `CCOc1ncccc1C1(OC(=O)N2CCN(C3CCN(C)CC3)CC2)C(=O)N(S(=O)(=O)c2ccc(OC)cc2OC)c2cc(F)c(C#N)cc21` (stereo not drawn) [Example 38, 5-Cyano-1-(2,4-dimethoxybenzenesulfonyl)-3-(2-ethoxypyridin-3-yl)-6-fluoro-2-oxo-2,3-dihydro-1H-indol-3-yl 4-(1-methylpiperidin-4-yl)piperazine-1-carboxylate] were “+++ (>75)”, “+++ (>75)” and under 1 nM.
Taken in the same sequence, the figures for `CCOc1ncccc1C1(NC(=O)N2CCN(C3CCN(C)CC3)CC2)C(=O)N(S(=O)(=O)c2ccc(OC)cc2)c2cc(F)c(C#N)cc21` (stereo not drawn) [Example 5, 4-(1-Methylpiperidin-4-yl)piperazine-1-[5-cyano-3-(2-ethoxypyridin-3-yl)-6-fluoro-1-(4-methoxyphenylsulfonyl)-2-oxo-2,3-dihydro-1H-indol-3-yl]carboxamide] were “+++ (>75)”, “+++ (>75)” and 1 to 10 nM.
The like results for `CCOc1ncccc1C1(OC(=O)N2CCN(C3CCN(C)CC3)CC2)C(=O)N(S(=O)(=O)c2ccc(OC)cc2)c2cc(F)c(F)cc21` (stereo not drawn) [Example 52, 3-(2-Ethoxypyridin-3-yl)-5,6-difluoro-1-(4-methoxyphenylsulfonyl)-2-oxo-2,3-dihydro-1H-indol-3-yl 4-(1-methylpiperidin-4-yl)piperazine-1-carboxylate] were, in that order, “++ (25-75)”, “+ (10-<25)” and 1 to 10 nM.
Turning to `CCOc1ccccc1C1(NC(=O)N2CCN(C3CCN(CC)CC3)CC2)C(=O)N(S(=O)(=O)c2ccccc2)c2cc(F)c(C#N)cc21` (stereo not drawn) [Example 13, 4-(1-Ethylpiperidin-4-yl)piperazine-1-[1-phenylsulfonyl-5-cyano-3-(2-ethoxyphenyl)-6-fluoro-2-oxo-2,3-dihydro-1H-indol-3-yl]carboxamide], the “Ki(h − V1a)/Ki(h − V1b)*” value in assay [1] was “++ (25-75)”. Further, the “Ki(h − OT)/Ki(h − V1b)*” value in assay [2] is “+++ (>75)”. Also, in assay [3], the Ki lay within 1 to 10 nM.
As for `CCOc1ncccc1C1(NC(=O)N2CCN(C3CCN(CC)CC3)CC2)C(=O)N(S(=O)(=O)c2ccc(OC)cc2OC)c2cc(F)c(Cl)cc21` (stereo not drawn) [Example 21, 4-(1-Ethylpiperidin-4-yl)piperazine-1-[5-chloro-1-(2,4-dimethoxyphenylsulfonyl)-3-(2-ethoxypyridin-3-yl)-6-fluoro-2-oxo-2,3-dihydro-1H-indol-3-yl]carboxamide], the “Ki(h − V1a)/Ki(h − V1b)*” value in assay [1] is “++ (25-75)”. Also, the “Ki(h − OT)/Ki(h − V1b)*” value in assay [2] was “+++ (>75)”. The compound further gave an inhibition constant Ki in assay [3] of under 1 nM.
Consider `CCOc1ncccc1C1(NC(=O)N2CCC(C3CCN(C)CC3)CC2)C(=O)N(S(=O)(=O)c2ccc(OC)cc2OC)c2cc(F)c(Cl)cc21` (stereo not drawn) [Example 26, 1′-Methyl[4,4′]bipiperidinyl-1-[5-chloro-1-(2,4-dimethoxyphenylsulfonyl)-3-(2-ethoxy-pyridin-3-yl)-6-fluoro-2-oxo-2,3-dihydro-1H-indol-3-yl]carboxamide], for which the “Ki(h − V1a)/Ki(h − V1b)*” value in assay [1] is “+ (10-<25)”. The “Ki(h − OT)/Ki(h − V1b)*” value in assay [2] is “+++ (>75)”. Also, the inhibition constant Ki in assay [3] is under 1 nM.
